These results are taken from patent publication US20050209278A1, “Piperidinyl- and piperazinyl-sulfonylmethyl hydroxamic acids and their use as protease inhibitors” (priority 2002, published 2005).

pKi: −log10 of the molar value.

The target in one test is T1, MMP-13 (Homo sapiens, UniProt P45452).
T1 construct: made in house; host or cells: baculovirus / insect cells
In words: In vitro MMP inhibition, Ki determination (fluorogenic substrate II). Format: biochemical. To be noted: value not in parenthesis; read-out: MMP-13 Ki. An outline of the steps:
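Ki determined with human recombinant MMP-13, baculovirus-expressed as proenzyme and activated with APMA. Fluorogenic MCA/Dpa substrate II at 4 μM (at or below Km) with low enzyme in Tris buffer pH 7.5 with CaCl2. Incubation was 1 h at room temperature, with fluorescence read at 330/420 nm.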

The target in the next test is T2, MMP-14 (Homo sapiens, UniProt P50281).
T2 construct: The catalytic domain enzyme was expressed in E. coli inclusion bodies, solubilized in urea; made in house
The test is described as above. Format: biochemical. To be noted: value not in parenthesis; read-out: MMP-14 Ki. An outline of the steps: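 E. coli-expressed, refolded MMP-14 catalytic domain, activated with APMA or trypsin, in 100 mM Tris-HCl pH 7.5, 100 mM NaCl, 10 mM CaCl2, 0.05% Brij-type detergent. Apparent Ki by Morrison-equation regression of velocity vs inhibitor and enzyme concentration.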

In general, pKi refers to −log10 of the Ki, conventionally taken in molar units. Consider `CCCCOc1ccc(N2CCN(S(=O)(=O)C3(C(=O)NO)CCN(c4cc(C)ccn4)CC3)CC2)cc1` [Example 139], for which the pKi on MMP-13 was 8.69; on MMP-14, 5.90.
The matching figures for `CCCCOc1ccc(N2CCN(S(=O)(=O)C3(C(=O)NO)CCN(c4cnccn4)CC3)CC2)cc1` [Example 140]: 9.35 and 6.02.
On the same counts, the results for `CCCCOc1ccc(N2CCN(S(=O)(=O)C3(C(=O)NO)CCN(C(=O)OCCOC)CC3)CC2)cc1` [Example 141] are 9.82 and 5.94.
The matching figures for `CCCCOc1ccc(N2CCN(S(=O)(=O)C3(C(=O)NO)CCN(c4ccc(OC)nc4)CC3)CC2)cc1` [Example 142]: 9.30 and 5.58.
With `CCCCOc1ccc(N2CCN(S(=O)(=O)C3(C(=O)NO)CCN(C(=O)c4cc5ccccc5s4)CC3)CC2)cc1` [Example 143], the results for the pKi on MMP-13 and on MMP-14 were 8.15 and below 5.00, respectively.
The matching figures for `COCCN1CCC(C(=O)NO)(S(=O)(=O)N2CCN(c3ccc(OCC(F)(F)C(F)(F)F)cc3)CC2)CC1` [Example 144]: 9.51 and below 5.00.
On the same counts, the results for `CCCCOc1ccc(N2CCN(S(=O)(=O)C3(C(=O)NO)CCOCC3)CC2)cc1` [Example 145] are 9.46 and 5.63.
For the compound `CCCCc1ccc(N2CCN(S(=O)(=O)C3(C(=O)NO)CCN(c4ccc(C)cc4)CC3)CC2)cc1` [Example 146], the negative logarithm of the Ki (pKi) at MMP-13 was 8.03; at MMP-14, 5.06.
The matching figures for `CCCCCc1ccc(N2CCN(S(=O)(=O)C3(C(=O)NO)CCN(c4ccc(C)cc4)CC3)CC2)cc1` [Example 147]: 8.13 and below 5.00.
The matching figures for `COCCN1CCC(C(=O)NO)(S(=O)(=O)N2CCN(c3ccc(OCCC(C)C)cc3)CC2)CC1` [Example 148]: 9.62 and 5.16.
Regarding `CCCCOc1ccc(N2CCN(S(=O)(=O)C3(C(=O)NO)CCN(c4ccccn4)CC3)CC2)cc1` [Example 149], the pKi was 8.88 on MMP-13 and 5.58 on MMP-14.
On the same counts, the results for `CCCCOc1ccc(N2CCN(S(=O)(=O)C3(C(=O)NO)CCN(c4nc5ccccc5o4)CC3)CC2)cc1` [Example 150] are 7.95 and 5.06.
On the same counts, the results for `O=C(NO)C1(S(=O)(=O)N2CCN(c3ccc(SC(F)(F)F)cc3)CC2)CCN(Cc2ccccc2)CC1` [Example 152] are 8.24 and 5.65.
The matching figures for `O=C(NO)C1(S(=O)(=O)N2CCN(c3ccc(OCCCC(F)(F)F)cc3)CC2)CCN(C2CC2)CC1` [Example 153]: 10.00 and 5.17.
For `CCCCOc1ccc(N2CCN(S(=O)(=O)C3(C(=O)NO)CCN(c4cccnc4)CC3)CC2)cc1` [Example 154], the pKi was 9.25 on MMP-13 and 5.44 at MMP-14.
On the same counts, the results for `CCCCOc1ccc(N2CCN(S(=O)(=O)C3(C(=O)NO)CCN(c4ncc(CC)cn4)CC3)CC2)cc1` [Example 155] are 8.47 and 5.27.
